16 molecules from ChEMBL document CHEMBL5260839 (J Med Chem, 2019) can be followed below.

Structures are written as SMILES.

A word on the IC50: it is the concentration needed to halve the response being measured.

For the test, the system named is RS4-11. Briefly: cells. The following applies: Homo sapiens, RS4-11, 96 h.
In the case of `O=C1CCC(N2C(=O)c3cccc(NCCCCCCCNC(=O)c4ccc(NC(=O)[C@@H]5NC6(CCCCC6)[C@@]6(C(=O)Nc7cc(Cl)ccc76)[C@H]5c5cccc(Cl)c5F)cc4)c3C2=O)C(=O)N1` (stereo partly specified), half-maximal inhibition (IC50) required 100 nM.

`O=C1CCC(N2C(=O)c3cccc(NCCNC(=O)c4ccc(NC(=O)[C@@H]5NC6(CCCCC6)[C@@]6(C(=O)Nc7cc(Cl)ccc76)[C@H]5c5cccc(Cl)c5F)cc4)c3C2=O)C(=O)N1` (stereo partly specified) displayed an IC50 of 15 nM.

`O=C1CCC(N2C(=O)c3cccc(NCCCNC(=O)c4ccc(NC(=O)[C@@H]5NC6(CCCCC6)[C@@]6(C(=O)Nc7cc(Cl)ccc76)C5c5cccc(Cl)c5F)cc4)c3C2=O)C(=O)N1` (single isomer, unassigned) registered a half-inhibitory concentration (IC50) of 9 nM.

As to `Cc1ncsc1-c1ccc([C@H](C)NC(=O)[C@@H]2C[C@@H](O)CN2C(=O)[C@@H](NC(=O)CCCOCCOCCOCCNC(=O)c2ccc(NC(=O)[C@@H]3NC4(CCCCC4)[C@@]4(C(=O)Nc5cc(Cl)ccc54)[C@H]3c3cccc(Cl)c3F)cc2)C(C)(C)C)cc1`, inhibition was half-maximal at 340 nM (IC50). This IC50 lies about 38-fold higher than the previous one.

`Cc1ncsc1-c1ccc([C@H](C)NC(=O)[C@@H]2C[C@@H](O)CN2C(=O)[C@@H](NC(=O)CCCCNC(=O)c2ccc(NC(=O)[C@@H]3NC4(CCCCC4)[C@@]4(C(=O)Nc5cc(Cl)ccc54)[C@H]3c3cccc(Cl)c3F)cc2)C(C)(C)C)cc1` registered an IC50 of 1200 nM.

Turning to `O=C1CCC(N2Cc3c(C#CCCNC(=O)c4ccc(NC(=O)[C@@H]5NC6(CCCCC6)[C@@]6(C(=O)Nc7cc(Cl)ccc76)[C@H]5c5cccc(Cl)c5F)cc4)cccc3C2=O)C(=O)N1` (stereo partly specified), half-maximal inhibition (IC50) required 3.9 nM.

Regarding `O=C1CCC(N2C(=O)c3cccc(NC(=O)c4ccc(NC(=O)[C@@H]5NC6(CCCCC6)[C@@]6(C(=O)Nc7cc(Cl)ccc76)[C@H]5c5cccc(Cl)c5F)cc4)c3C2=O)C(=O)N1` (stereo partly specified), the 50% inhibitory concentration (IC50) was determined as 68.4 nM.

Regarding `O=C1CCC(N2C(=O)c3cccc(NCCOCCOCCOCCNC(=O)c4ccc(NC(=O)[C@@H]5NC6(CCCCC6)[C@@]6(C(=O)Nc7cc(Cl)ccc76)[C@H]5c5cccc(Cl)c5F)cc4)c3C2=O)C(=O)N1` (stereo partly specified), the IC50 came out at 5 nM.

Molecule `O=C1CCC(N2Cc3ccc(CC#CCCCNC(=O)c4ccc(NC(=O)[C@@H]5NC6(CCCCC6)[C@@]6(C(=O)Nc7cc(Cl)ccc76)[C@H]5c5cccc(Cl)c5F)cc4)cc3C2=O)C(=O)N1` (stereo partly specified) showed a half-inhibitory concentration (IC50) of 5 nM.

For `O=C1CCC(N2C(=O)c3cccc(NCCCCCNC(=O)c4ccc(NC(=O)[C@@H]5NC6(CCCCC6)[C@@]6(C(=O)Nc7cc(Cl)ccc76)[C@H]5c5cccc(Cl)c5F)cc4)c3C2=O)C(=O)N1` (stereo partly specified), 12 nM corresponded to half-maximal inhibition (IC50).

Molecule `O=C1CCC(N2Cc3c(C#CCCCNC(=O)c4ccc(NC(=O)[C@H]5NC6(CCCCC6)[C@]6(C(=O)Nc7cc(Cl)ccc76)[C@@H]5c5cccc(Cl)c5F)cc4)cccc3C2=O)C(=O)N1` (stereo partly specified) yielded a 50% inhibitory concentration (IC50) above 10000 nM.

The molecule `O=C1CCC(N2Cc3cc(CC#CCCCNC(=O)c4ccc(NC(=O)[C@@H]5NC6(CCCCC6)[C@@]6(C(=O)Nc7cc(Cl)ccc76)[C@H]5c5cccc(Cl)c5F)cc4)ccc3C2=O)C(=O)N1` (stereo partly specified) displayed a concentration for half-maximal inhibition (IC50) of 5 nM.

As for `O=C1CCC(N2C(=O)c3cccc(CCCCCNC(=O)c4ccc(NC(=O)[C@@H]5NC6(CCCCC6)[C@@]6(C(=O)Nc7cc(Cl)ccc76)[C@H]5c5cccc(Cl)c5F)cc4)c3C2=O)C(=O)N1` (stereo partly specified), the IC50 was determined as 29 nM. Compared with the last molecule, the IC50 is about 5.8-fold higher.

`O=C1CCC(N2C(=O)c3cccc(NCCOCCNC(=O)c4ccc(NC(=O)[C@@H]5NC6(CCCCC6)[C@@]6(C(=O)Nc7cc(Cl)ccc76)[C@H]5c5cccc(Cl)c5F)cc4)c3C2=O)C(=O)N1` (stereo partly specified) registered an IC50 of 8 nM.

Molecule `CN1C(=O)CCC(N2Cc3c(C#CCCCNC(=O)c4ccc(NC(=O)[C@@H]5NC6(CCCCC6)[C@@]6(C(=O)Nc7cc(Cl)ccc76)[C@H]5c5cccc(Cl)c5F)cc4)cccc3C2=O)C1=O` (stereo partly specified) came in with an IC50 of 1200 nM. This IC50 lies about 150-fold higher than the previous one.

Regarding `Cc1ncsc1-c1ccc([C@H](C)NC(=O)[C@@H]2C[C@@H](O)CN2C(=O)[C@@H](NC(=O)CCOCCOCCNC(=O)c2ccc(NC(=O)[C@@H]3NC4(CCCCC4)[C@@]4(C(=O)Nc5cc(Cl)ccc54)[C@H]3c3cccc(Cl)c3F)cc2)C(C)(C)C)cc1`, the 50% inhibitory concentration (IC50) turned out to be 500 nM. Compared with the last molecule, the IC50 is about 2.4-fold lower.
